Reference: patent US20100227853A1, “INHIBITORS OF CYCLIC AMP PHOSPHODIESTERASES” (Trustees of Boston College, priority 2008, published 2010)
“Also recorded” adds a separate entry of the source.

system: PDE4A, PDE4B, PDE4D, PDE7A, PDE7B, PDE8A, PDE3A; assay: Summary of PDE inhibitor profile; parameters: key to PDE inhibitor profile (Table 17): (1): Strong PDE4A, PDE4B inhibitor; (2): Strong PDE4A inhibitor; (3): Strong PDE4B, moderate PDE4A inhibitor; (4): Moderate PDE4A, PDE4B inhibitor; (5): Moderate PDE4B inhibitor; key to inhibitor class, Table 15: (1): Strong PDE4A5 inhibitor; (2): Strong PDE4A, 4B inhibitor; Moderate PDE4D inhibitor; (3): Strong PDE4A. 4B inhibitor; (4): Strong PDE4A, 4B, PDE7A inhibitor: Weak PDE4D inhibitor; settings: not given

Row | Structure (SMILES) | inhibitor class, Table 15 | PDE inhibitor profile, in words
1 | COC(=O)C1=C(C)N(c2ccc(C(C)C)cc2)C(=O)/C1=C\c1ccco1 [2008, 019] | 2008, 019 (1) | 
2 | Cc1c(C(=O)Nc2ccc(F)cc2F)sc2ncnc(N3CCC(C)CC3)c12 [BC58] |  | effective PDE4A/4B inhibitor that exhibits limited/essentially no inhibition of PDE4D; also recorded: PDE4A/4B-specific inhibitor
3 | COC(=O)C1/C(=C/c2cccc(OC)c2O)C(=O)N(c2ccccc2F)C1C (stereo not shown) [2008, C21] | 2008, C21 (2) | 
4 | COC(=O)C1=C(C)N(c2ccccc2)/C(=C/c2cccs2)C1=O [2008, K19] | 2008, K19 (1) | 

same assay, conditions: overall classification, Table 17 footnotes

Row | Structure (SMILES) | PDE inhibitor profile (Table 17)
5 | c1ccc(CCn2c3ccccc3c3nc4ccccc4nc32)cc1 [2019, G03] | 2019, G03 (4)
6 | Cc1ccc2c(c1)c1nc3ccccc3nc1n2C(C)C [Compound 41] | 41 (1)
7 | CC(C)Cn1c2ccc(Br)cc2c2nc3ccccc3nc21 [2015, L04] | 2015, L04 (1)
8 | C=CCn1c2ccc(Br)cc2c2nc3ccccc3nc21 [2017, C18] | 2017, C18 (4)
9 | C=Cn1c2ccccc2c2nc3ccccc3nc21 [2033, H06] | 2033, H06 (4)
10 | CCc1ccc2c(c1)c1nc3ccccc3nc1n2CC [2015, P06] | 2015, P06 (4)
11 | CCCCn1c2ccccc2c2nc3ccccc3nc21 [2013, I20] | 2013, I20 (1)

biological target: T1, PDE4A1 (Mus musculus, UniProt O89084); assay: 5FOA growth assay (high throughput screen, ED50) in fission yeast strain expressing PDE4A1; format: cell-based; settings: 20 uM; PDE 4A1
T1 construct: targets used in the assays are full-length proteins (as opposed to simply the catalytic domain); expressed in transfected cells; host or cells: Schizosaccharomyces pombe, PDE gene integrated in place of cgs2
T1 sequence (O89084 1-610 isoform O89084-2): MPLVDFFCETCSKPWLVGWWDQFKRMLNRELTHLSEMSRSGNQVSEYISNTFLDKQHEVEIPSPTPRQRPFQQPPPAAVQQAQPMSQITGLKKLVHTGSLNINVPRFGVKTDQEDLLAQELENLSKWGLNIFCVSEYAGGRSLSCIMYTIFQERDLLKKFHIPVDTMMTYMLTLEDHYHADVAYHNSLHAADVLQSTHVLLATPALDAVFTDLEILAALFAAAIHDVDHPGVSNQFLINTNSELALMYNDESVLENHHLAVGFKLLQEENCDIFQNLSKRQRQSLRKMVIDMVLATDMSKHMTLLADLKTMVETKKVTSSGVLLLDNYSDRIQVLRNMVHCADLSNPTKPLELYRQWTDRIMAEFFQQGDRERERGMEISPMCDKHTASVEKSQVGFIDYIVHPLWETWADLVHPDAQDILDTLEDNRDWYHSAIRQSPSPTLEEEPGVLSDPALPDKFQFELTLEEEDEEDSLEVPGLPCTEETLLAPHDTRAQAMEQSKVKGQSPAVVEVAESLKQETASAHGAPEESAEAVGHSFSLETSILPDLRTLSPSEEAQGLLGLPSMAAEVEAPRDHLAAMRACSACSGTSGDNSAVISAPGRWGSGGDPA
Summary of the method: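 Fission yeast strains carrying mouse PDE4A1 or PDE4B3 and an fbp1-ura4 reporter were pregrown in EMM with 0.5–2.5 mM cAMP, then seeded at 0.5–4×10^5 cells/ml in 5FOA medium with compound. Growth was read as OD600 after 48 h at 30° C; composite Z scores were derived.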

Row | Structure (SMILES) | 1 Assay (20 uM) 4A1
12 | c1ccc(CCn2c3ccccc3c3nc4ccccc4nc32)cc1 [2019, G03] | 36.37 ND ND ND ND
13 | Cc1ccc2c(c1)c1nc3ccccc3nc1n2C(C)C [Compound 41] | 106.90
14 | CC(C)Cn1c2ccc(Br)cc2c2nc3ccccc3nc21 [2015, L04] | 13.51 ND ND ND ND
15 | C=CCn1c2ccc(Br)cc2c2nc3ccccc3nc21 [2017, C18] | 49.17 ND ND ND ND
16 | C=Cn1c2ccccc2c2nc3ccccc3nc21 [2033, H06] | 29.62 ND ND ND ND
17 | CCc1ccc2c(c1)c1nc3ccccc3nc1n2CC [2015, P06] | 23.52 ND ND ND ND
18 | CCCCn1c2ccccc2c2nc3ccccc3nc21 [2013, I20] | 80.55 ND ND ND ND

same assay, conditions: high throughput 5FOA growth screen; greater than 8.53 = statistically-significant inhibitor

Row | Structure (SMILES) | Composite Z score, PDE4A1
19 | Cc1c(C(=O)Nc2ccc(F)cc2F)sc2ncnc(N(C)c3ccccc3)c12 [Compound 58-9] | 25.972
20 | COc1ccc(NC(=O)c2sc3nc(C)nc(N(C)c4ccc(C(C)C)cc4)c3c2C)c(OC)c1 [Compound 2041I04] | 5.2983
21 | CCOC(CNc1nc(C)nc2sc3c(c12)CCCC3)OCC [Compound 2040D04] | 3.1355
22 | CNc1nc(=S)[nH]c2sc3c(c12)CCCC3 [2054 E08] | −1.088
23 | Cc1c(C(=O)NCCC2CCCCC2)sc2ncnc(N3CCCCC3C)c12 (stereo not shown) [Compound 2040H10] | 14.925
24 | c1nc(NCCCN2CCOCC2)c2c3c(sc2n1)CCCC3 [Compound 2051N22] | 1.1862
25 | CCN(CC)c1ncnc2sc(C(=O)N(C)C3CCCCC3)c(C)c12 [Compound 2040J12] | 7.0857
26 | CCC(C)NC(=O)c1sc2nc(C)nc(N(C)c3ccc(C(C)C)cc3)c2c1C (stereo not shown) [Compound 2041K04] | 11.659
27 | CCN(CC)c1nc(C)nc2sc(C(=O)N3CCCCCC3)c(C)c12 [Compound 2040N12] | 7.3705
28 | Cc1nc(N2CCC(C)CC2)c2c(C)c(C(=O)N3CCN(c4ccc(F)cc4)CC3)sc2n1 [Compound 2040N10] | 12.024
29 | c1csc(CCNc2ncnc3sc4c(c23)CCC4)c1 [Compound 2005M12] | −1.628
30 | COc1ccccc1CNC(=O)c1sc2ncnc(N3CCN(c4ccccc4F)CC3)c2c1C [2041 E21] | 1.9156
31 | COc1ccc(CCNc2ncnc3sc4c(c23)CCCC4)cc1 [Compound 2012B19] | 32.257
32 | COc1cc(OC)c(NC(=O)c2sc3ncnc(N4CCCCC4C)c3c2C)cc1Cl (stereo not shown) [Compound 2040J10] | 3.0133
33 | Cc1c(C(=O)NCCC(C)C)sc2ncnc(N3CCOCC3)c12 [Compound 2040F13] | 3.5005
34 | Cc1c(C(=O)N2CCCCCC2)sc2ncnc(N3CCN(c4ccccc4)CC3)c12 [Compound 2041I21] | 0.2744
35 | Cc1cc(C)c(C)c(S(=O)(=O)N2CCN(c3ncnc4sc5c(c34)CCCC5)CC2)c1C [Compound 2012L13] | 1.67
36 | Cc1c(C(=O)Nc2ccc(F)cc2F)sc2ncnc(N3CCC(C)CC3)c12 [BC58] | 34.335
37 | Cc1nc(NCCc2ccccc2)c2c3c(sc2n1)CCCC3 [Compound 2008G09] | 0.1429

Row | Structure (SMILES) | Composite Z score, PDE4A1
38 | CCOC(=O)c1ccccc1NC(=O)c1sc2nc(C)nc(N(CC)CC)c2c1C [Compound 2040P12] | 12.157
39 | CCCCN(CC)C(=O)c1sc2ncnc(N3CCN(c4ccc(OC)cc4)CC3)c2c1C [Compound 2007H06] | 0.0978
40 | O=C(/C=C/c1ccccc1)Nc1ncnc2sc3c(c12)CCC3 [Compound 2008K11] | −1.395
41 | CC(C)CC(Nc1ncnc2sc3c(c12)CCC3)C(=O)O (stereo not shown) [Compound 2012H20] | 0.407
42 | Cc1c(C(=O)N(C)Cc2ccccc2)sc2ncnc(N3CCN(c4ccccc4)CC3)c12 [Compound 2041G21] | −0.629
43 | O=C(Nc1ncnc2sc3c(c12)CCCCC3)c1ccc(F)cc1 [Compound 2012F09] | 34.225
44 | CCN(CC)c1nc(C)nc2sc(C(=O)Nc3cc(Cl)ccc3OC)c(C)c12 [Compound 2040L12] | 8.6742
45 | CCNc1nc(SCC(=O)NC(=O)NCc2ccccc2)nc2sc3c(c12)CCN(C)C3 [Compound 2054N05] | −0.307
46 | OCCNc1ncnc2sc3c(c12)CCCC3 [Compound 2051H22] | 2.4965
47 | CCNc1nc(SCC(=O)OCC)nc2sc3c(c12)CCC(C)C3 (stereo not shown) [Compound 2053H16] | 3.7863
48 | CCOC(=O)c1sc2nc(Cc3ccccc3)nc(NCCC3CCCCC3)c2c1C [Compound 2040F07] | 3.8961
49 | CCOC(=O)c1sc2nc(C)nc(N(C)Cc3ccccc3)c2c1C [Compound 2007L04] | 0.6949
50 | CC1CC(=O)N(c2ncnc3sc4c(c23)CCCC4)N1 (stereo not shown) [2054 E16] | 0.2389
51 | Cc1nc(N2CCCCC2)c2c(C)c(C(=O)Nc3cccc(C(F)(F)F)c3)sc2n1 [Compound 2040F10] | 11.225
52 | COc1cccc(NC(=O)c2sc3ncnc(N4CCc5ccccc5C4)c3c2C)c1 [Compound 2041K21] | 19.619
53 | CCOC(=O)c1sc2nc(C)nc(N3CCC(C)CC3)c2c1C [Compound 2007D06] | −0.396
54 | CCNc1nc(SCc2ccc(Cl)cc2)nc2sc3c(c12)CCN(C)C3 [Compound 2054P05] | 2.3863
55 | O=C(O)CCNc1ncnc2sc3c(c12)CCCC3 [Compound 2012O16] | 2.8
